Results: ChEMBL document CHEMBL5465560, “Selectivity Literature for EUbOPEN Chemogenomic Library” (2024)
One block for each compound: values may come before it.

What was measured:
[1] = target: T1, Histone-lysine N-methyltransferase NSD3 (Homo sapiens) (UniProt Q9BZ95); assay: Selectivity interaction (Methyltransferase screen (radiometric assays, panel of 8 PRMTs, 21 protein lysine methyltransferases, 3 DNA methyltransferases, and one RNA methyltransferase)) EUB0000271b NSD3
T1 sequence (whole entry): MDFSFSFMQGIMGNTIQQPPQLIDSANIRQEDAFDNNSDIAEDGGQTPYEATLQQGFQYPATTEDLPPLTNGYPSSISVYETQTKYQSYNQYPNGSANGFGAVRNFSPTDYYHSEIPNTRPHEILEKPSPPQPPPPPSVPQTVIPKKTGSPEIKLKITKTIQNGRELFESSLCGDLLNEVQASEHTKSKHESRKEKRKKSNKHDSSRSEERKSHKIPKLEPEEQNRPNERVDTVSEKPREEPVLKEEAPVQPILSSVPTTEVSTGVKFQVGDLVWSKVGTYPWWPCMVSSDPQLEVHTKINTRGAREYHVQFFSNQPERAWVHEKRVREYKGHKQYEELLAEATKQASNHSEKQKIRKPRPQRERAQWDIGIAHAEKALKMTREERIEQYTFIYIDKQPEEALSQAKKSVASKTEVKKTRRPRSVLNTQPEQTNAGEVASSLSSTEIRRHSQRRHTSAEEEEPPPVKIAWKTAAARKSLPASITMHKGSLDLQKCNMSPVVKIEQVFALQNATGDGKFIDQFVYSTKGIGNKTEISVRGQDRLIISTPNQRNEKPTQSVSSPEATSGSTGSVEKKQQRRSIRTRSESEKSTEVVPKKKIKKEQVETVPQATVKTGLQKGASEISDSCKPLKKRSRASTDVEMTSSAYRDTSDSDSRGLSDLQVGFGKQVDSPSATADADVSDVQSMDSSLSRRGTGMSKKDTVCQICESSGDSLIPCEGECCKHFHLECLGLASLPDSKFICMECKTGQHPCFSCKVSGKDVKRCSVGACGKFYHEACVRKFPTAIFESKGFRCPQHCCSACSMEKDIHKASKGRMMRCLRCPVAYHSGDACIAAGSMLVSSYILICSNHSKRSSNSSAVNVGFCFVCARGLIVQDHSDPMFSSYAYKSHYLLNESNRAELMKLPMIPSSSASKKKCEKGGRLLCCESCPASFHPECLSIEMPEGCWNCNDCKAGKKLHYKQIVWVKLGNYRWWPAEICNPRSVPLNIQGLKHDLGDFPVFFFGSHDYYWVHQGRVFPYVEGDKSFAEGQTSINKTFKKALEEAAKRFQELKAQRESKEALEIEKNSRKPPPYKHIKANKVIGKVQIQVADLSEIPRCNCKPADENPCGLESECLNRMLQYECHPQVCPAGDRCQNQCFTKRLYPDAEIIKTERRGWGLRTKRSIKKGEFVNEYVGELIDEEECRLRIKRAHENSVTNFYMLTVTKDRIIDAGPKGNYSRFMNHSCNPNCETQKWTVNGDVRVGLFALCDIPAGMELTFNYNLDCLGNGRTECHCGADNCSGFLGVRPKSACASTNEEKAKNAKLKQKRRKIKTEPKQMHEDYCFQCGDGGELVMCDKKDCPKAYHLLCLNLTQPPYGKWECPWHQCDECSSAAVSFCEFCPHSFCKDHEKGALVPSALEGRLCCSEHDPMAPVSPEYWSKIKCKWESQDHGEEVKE

[2] = target: T2, Bone morphogenetic protein receptor type-2 (Homo sapiens) (UniProt Q13873); assay: Selectivity interaction (Kinase panel (DSF assay)) EUB0001559a BMPR2
T2 sequence (whole entry): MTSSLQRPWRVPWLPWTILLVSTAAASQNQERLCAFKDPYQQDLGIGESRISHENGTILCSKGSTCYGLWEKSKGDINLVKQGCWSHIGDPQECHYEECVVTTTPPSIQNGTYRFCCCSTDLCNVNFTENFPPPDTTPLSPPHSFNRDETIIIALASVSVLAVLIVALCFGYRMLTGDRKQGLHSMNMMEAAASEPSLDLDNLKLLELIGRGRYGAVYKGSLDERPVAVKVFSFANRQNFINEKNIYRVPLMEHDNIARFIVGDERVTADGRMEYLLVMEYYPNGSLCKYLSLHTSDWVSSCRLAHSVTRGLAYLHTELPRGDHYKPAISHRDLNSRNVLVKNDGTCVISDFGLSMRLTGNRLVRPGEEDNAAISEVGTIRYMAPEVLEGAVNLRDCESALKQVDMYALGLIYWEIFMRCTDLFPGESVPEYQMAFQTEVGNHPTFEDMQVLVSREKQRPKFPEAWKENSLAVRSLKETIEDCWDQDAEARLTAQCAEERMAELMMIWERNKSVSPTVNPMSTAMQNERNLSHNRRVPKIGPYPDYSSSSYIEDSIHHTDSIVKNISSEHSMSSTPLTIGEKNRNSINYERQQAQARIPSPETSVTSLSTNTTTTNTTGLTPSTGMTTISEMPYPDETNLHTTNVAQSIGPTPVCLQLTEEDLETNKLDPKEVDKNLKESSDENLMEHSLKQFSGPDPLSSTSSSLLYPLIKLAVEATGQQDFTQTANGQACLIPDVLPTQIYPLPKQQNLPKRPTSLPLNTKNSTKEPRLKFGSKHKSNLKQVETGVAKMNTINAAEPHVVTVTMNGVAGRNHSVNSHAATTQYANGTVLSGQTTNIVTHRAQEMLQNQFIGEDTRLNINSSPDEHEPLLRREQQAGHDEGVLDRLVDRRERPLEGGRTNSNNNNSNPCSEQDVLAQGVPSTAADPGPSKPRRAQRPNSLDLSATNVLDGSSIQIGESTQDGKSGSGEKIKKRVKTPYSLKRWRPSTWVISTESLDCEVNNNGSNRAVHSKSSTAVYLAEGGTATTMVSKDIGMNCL

[3] = target: Epithelial discoidin domain-containing receptor 1 (Homo sapiens) (UniProt Q08345); assay: Selectivity interaction (KinomeScan (DiscoverX)) EUB0000092b DDR1; details: at 10 µM
Chain of Epithelial discoidin domain-containing receptor 1 (Homo sapiens) (Q08345 whole entry, the tested form may be a part): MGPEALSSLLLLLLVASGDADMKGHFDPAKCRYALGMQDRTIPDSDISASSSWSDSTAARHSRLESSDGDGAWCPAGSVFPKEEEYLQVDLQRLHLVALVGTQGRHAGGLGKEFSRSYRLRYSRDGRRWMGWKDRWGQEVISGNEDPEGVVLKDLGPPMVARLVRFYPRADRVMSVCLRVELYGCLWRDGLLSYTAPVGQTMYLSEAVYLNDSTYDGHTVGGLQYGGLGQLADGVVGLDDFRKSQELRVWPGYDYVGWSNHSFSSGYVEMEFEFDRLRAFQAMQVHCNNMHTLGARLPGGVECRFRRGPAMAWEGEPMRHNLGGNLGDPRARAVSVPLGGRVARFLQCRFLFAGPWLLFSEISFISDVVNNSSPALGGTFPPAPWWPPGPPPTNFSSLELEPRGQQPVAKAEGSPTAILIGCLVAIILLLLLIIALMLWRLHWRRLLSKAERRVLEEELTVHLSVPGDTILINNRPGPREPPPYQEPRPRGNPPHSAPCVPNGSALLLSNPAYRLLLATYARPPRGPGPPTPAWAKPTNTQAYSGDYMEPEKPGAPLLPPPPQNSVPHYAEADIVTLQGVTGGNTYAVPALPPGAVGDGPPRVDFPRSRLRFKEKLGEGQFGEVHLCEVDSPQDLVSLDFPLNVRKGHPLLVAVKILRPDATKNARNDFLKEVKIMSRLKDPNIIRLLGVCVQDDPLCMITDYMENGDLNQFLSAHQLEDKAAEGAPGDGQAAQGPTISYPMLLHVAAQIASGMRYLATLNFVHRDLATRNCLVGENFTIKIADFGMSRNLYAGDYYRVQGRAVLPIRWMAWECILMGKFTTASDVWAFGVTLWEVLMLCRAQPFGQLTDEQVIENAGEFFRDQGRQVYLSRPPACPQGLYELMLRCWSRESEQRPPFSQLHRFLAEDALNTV

SMILES: Cc1cc(C)cc([C@@H]2c3cc(C)ccc3NC(=O)CN2C(=O)c2ccc(Br)s2)c1
% of activity ([1]; at 1 µM): 99.3%
% of activity ([1]; at 10 µM): 104%

dTM [2]: -0.3 K
SMILES: CN(C(=O)c1cnn2cccnc12)c1cc2c(cc1N1CCOCC1)C(=O)N(C[C@@H](F)C(C)(C)O)C2

SMILES: CCC(=O)N1CCN(c2ccc(-n3c(=O)ccc4cnc5ccc(-c6cnc7ccccc7c6)cc5c43)cc2C(F)(F)F)CC1
% of control [3]: 100%
